Test results taken from the supplement of paper PMC6045584.
± gives the standard deviation of the averaged measurements.

Key:
[1] = compound: O=C(NOCC1CC1)c1ccc(F)c(F)c1Nc1ccc(I)cc1Cl; experiment: surviving fraction relative to DMSO-only wells; higher = less growth inhibition; settings: exposure time: 5 days
How it was run: (§1)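 Lines were retained only if, across three screens, replicate Pearson r was >0.7 and median Z' was >0.3. Viability was measured as CellTiter-Glo luminescence and reported as surviving fraction relative to the median of DMSO-only wells. Readings followed 10 minutes at room temperature, after log-phase tumour cells seeded at 250–500 per well in 384-well plates had been exposed, from 24 hours after seeding, continuously for five days to inhibitors at 0.5, 1, 5, 10, 50, 100, 500 and 1000 nM.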

ERLOTINIB = compound: C#Cc1cccc(Nc2ncnc3cc(OCCOC)c(OCCOC)cc23)c1 [ERLOTINIB]; experiment: as above; settings: exposure time: 5 days
How it was run: as §1

Test System: C33A CERVIX
- surviving fraction ([1]; 0.5 nM): 0.68 ± 0.058
- surviving fraction ([1]; 1 nM): 0.7503 ± 0.0031
- surviving fraction ([1]; 5 nM): 0.868 ± 0.12
- surviving fraction ([1]; 10 nM): 0.841 ± 0.071
- surviving fraction ([1]; 50 nM): 0.736 ± 0.085
- surviving fraction ([1]; 100 nM): 0.686 ± 0.047
- surviving fraction ([1]; 500 nM): 0.477 ± 0.066
- surviving fraction ([1]; 1000 nM): 0.461 ± 0.032
- surviving fraction (ERLOTINIB; 5 nM): 1.06 ± 0.03
- surviving fraction (ERLOTINIB; 10 nM): 1.14 ± 0.019
- surviving fraction (ERLOTINIB; 50 nM): 1.06 ± 0.077
- surviving fraction (ERLOTINIB; 100 nM): 1.08 ± 0.029
- surviving fraction (ERLOTINIB; 500 nM): 0.819 ± 0.052
- surviving fraction (ERLOTINIB; 1000 nM): 0.655 ± 0.031

Test System: CAL72 BONE
- surviving fraction ([1]; 0.5 nM): 1.045 ± 0.0036
- surviving fraction ([1]; 1 nM): 1.065 ± 0.0074
- surviving fraction ([1]; 5 nM): 1.07 ± 0.012
- surviving fraction ([1]; 10 nM): 1.09 ± 0.041
- surviving fraction ([1]; 50 nM): 1.051 ± 0.0061
- surviving fraction ([1]; 100 nM): 1.085 ± 0.0095
- surviving fraction ([1]; 500 nM): 1.07 ± 0.021
- surviving fraction ([1]; 1000 nM): 1.056 ± 0.0038
- surviving fraction (ERLOTINIB; 5 nM): 1.05 ± 0.1
- surviving fraction (ERLOTINIB; 100 nM): 1.1 ± 0.083
- surviving fraction (ERLOTINIB; 500 nM): 1.06 ± 0.084
- surviving fraction (ERLOTINIB; 1000 nM): 1.07 ± 0.058

Test System: G292 BONE
- surviving fraction ([1]; 0.5 nM): 0.986 ± 0.059
- surviving fraction ([1]; 1 nM): 0.942 ± 0.064
- surviving fraction ([1]; 5 nM): 0.985 ± 0.052
- surviving fraction ([1]; 10 nM): 0.986 ± 0.035
- surviving fraction ([1]; 50 nM): 0.967 ± 0.041
- surviving fraction ([1]; 100 nM): 0.959 ± 0.058
- surviving fraction ([1]; 500 nM): 0.897 ± 0.047
- surviving fraction ([1]; 1000 nM): 0.924 ± 0.0059
- surviving fraction (ERLOTINIB; 5 nM): 1.03 ± 0.051
- surviving fraction (ERLOTINIB; 10 nM): 1.06 ± 0.018
- surviving fraction (ERLOTINIB; 50 nM): 1.05 ± 0.038
- surviving fraction (ERLOTINIB; 100 nM): 1.07 ± 0.033
- surviving fraction (ERLOTINIB; 500 nM): 0.979 ± 0.019
- surviving fraction (ERLOTINIB; 1000 nM): 1.07 ± 0.092

Test System: HCC1395 BREAST
- surviving fraction ([1]; 0.5 nM): 0.997 ± 0.2
- surviving fraction ([1]; 1 nM): 0.963 ± 0.14
- surviving fraction ([1]; 5 nM): 0.951 ± 0.17
- surviving fraction ([1]; 10 nM): 0.958 ± 0.2
- surviving fraction ([1]; 50 nM): 0.838 ± 0.14
- surviving fraction ([1]; 100 nM): 0.96 ± 0.052
- surviving fraction ([1]; 500 nM): 0.86 ± 0.075
- surviving fraction ([1]; 1000 nM): 0.979 ± 0.042
- surviving fraction (ERLOTINIB; 1 nM): 0.992 ± 0.02
- surviving fraction (ERLOTINIB; 5 nM): 1.33 ± 0.036
- surviving fraction (ERLOTINIB; 10 nM): 1.18 ± 0.14
- surviving fraction (ERLOTINIB; 100 nM): 1.28 ± 0.027
- surviving fraction (ERLOTINIB; 500 nM): 1.14 ± 0.042
- surviving fraction (ERLOTINIB; 1000 nM): 1.19 ± 0.051

Test System: HUO3N1 BONE
- surviving fraction ([1]; 0.5 nM): 1.04 ± 0.051
- surviving fraction ([1]; 1 nM): 1.01 ± 0.056
- surviving fraction ([1]; 5 nM): 1.05 ± 0.03
- surviving fraction ([1]; 10 nM): 1.04 ± 0.029
- surviving fraction ([1]; 50 nM): 1.03 ± 0.037
- surviving fraction ([1]; 100 nM): 1.01 ± 0.011
- surviving fraction ([1]; 500 nM): 0.935 ± 0.017
- surviving fraction ([1]; 1000 nM): 1 ± 0.029
- surviving fraction (ERLOTINIB; 10 nM): 1.117 ± 0.0084
- surviving fraction (ERLOTINIB; 50 nM): 1.13 ± 0.025
- surviving fraction (ERLOTINIB; 100 nM): 1.1 ± 0.018
- surviving fraction (ERLOTINIB; 500 nM): 1.02 ± 0.025
- surviving fraction (ERLOTINIB; 1000 nM): 1.02 ± 0.038

Test System: LNCAP PROSTATE
- surviving fraction ([1]; 0.5 nM): 0.795 ± 0.11
- surviving fraction ([1]; 1 nM): 0.855 ± 0.081
- surviving fraction ([1]; 5 nM): 0.828 ± 0.11
- surviving fraction ([1]; 10 nM): 0.99 ± 0.11
- surviving fraction ([1]; 50 nM): 0.854 ± 0.17
- surviving fraction ([1]; 100 nM): 0.921 ± 0.094
- surviving fraction ([1]; 500 nM): 0.945 ± 0.024
- surviving fraction ([1]; 1000 nM): 0.884 ± 0.18
- surviving fraction (ERLOTINIB; 5 nM): 0.956 ± 0.032
- surviving fraction (ERLOTINIB; 10 nM): 0.892 ± 0.053
- surviving fraction (ERLOTINIB; 50 nM): 0.947 ± 0.1
- surviving fraction (ERLOTINIB; 100 nM): 1.02 ± 0.054
- surviving fraction (ERLOTINIB; 1000 nM): 0.967 ± 0.028

Test System: SCC003 HEADNECK
- surviving fraction ([1]; 0.5 nM): 0.843 ± 0.1
- surviving fraction ([1]; 1 nM): 0.826 ± 0.05
- surviving fraction ([1]; 5 nM): 0.942 ± 0.11
- surviving fraction ([1]; 10 nM): 0.907 ± 0.086
- surviving fraction ([1]; 50 nM): 0.917 ± 0.079
- surviving fraction ([1]; 100 nM): 0.924 ± 0.056
- surviving fraction ([1]; 500 nM): 0.689 ± 0.037
- surviving fraction ([1]; 1000 nM): 0.648 ± 0.033
- surviving fraction (ERLOTINIB; 5 nM): 1.13 ± 0.045
- surviving fraction (ERLOTINIB; 10 nM): 1.06 ± 0.11
- surviving fraction (ERLOTINIB; 50 nM): 0.997 ± 0.091
- surviving fraction (ERLOTINIB; 100 nM): 1.04 ± 0.051
- surviving fraction (ERLOTINIB; 500 nM): 0.702 ± 0.024
- surviving fraction (ERLOTINIB; 1000 nM): 0.552 ± 0.038
